In brackets after ≈: the same amount, converted by molar mass.
How the values were obtained:
[1] = Chemical Stability Assay - Teorell-Stenhagen Buffer; assay type: physicochemical; conditions: for Teorell-Stenhagen Buffer pH 3.5 t1/2 / Teorell-Stenhagen Buffer pH 4.5 t1/2 / Teorell-Stenhagen Buffer pH 5.5 t1/2 / Teorell-Stenhagen Buffer pH 6.5 t1/2 / Teorell-Stenhagen Buffer pH 7.5 t1/2 / Teorell-Stenhagen Buffer pH 8.5 t1/2: 10 μM, 0.5% DMSO, 20° C.
Description: (§1) CBD methyl ether and CBD difluoromethyl ether were synthesized using a synthetic protocol described above and the identities of the desired ether products were confirmed by nuclear magnetic resonance spectroscopy as well as HPLC-MS. CBD methyl and/or CBD difluoromethyl ethers were incubated in individual eppendorf tubes in the following mediums: (a) simulated gastric fluid (SGF) with and without pepsin; (b) microsomal extract; (c) S9 fraction (hepatic); (d) Plasma; (e) Teorell-Stenhagen Buffer at pH 3.5, 4.5, 5.5, 6.5, 7.5, and 8.5; and (f) simulated intestinal fluid (SIF) with and without pancreatin. Each incubation mixture contained up to 0.5% of an organic solvent. DMSO is the organic solvent when SGF and Teorell-Stenhagen Buffer was used and acetonitrile is the organic solvent for incubation mixtures in microsomal extract, S9 fraction, and plasma. The concentration of CBD methyl and/or CBD difluoromethyl ether is 10 μM for stability studies in SGF and Teorell-Stenhagen Buffer. However, the concentration of CBD methyl and/or CBD difluoromethyl ether is 1 μM for stability studies in microsomal extract, S9 fraction, and plasma.
[…] Aliquots were taken at fixed intervals of time, typically at 0, 5, 10, 15, 30, and 45 minutes, or at fixed intervals of 1 h, 1.5 h, 2 h, 4 h, 6 h, 8 h, 24 h, and 48 hours. At each interval of time, two aliquots of each sample were collected. Each aliquot was extracted with ethyl acetate. The ethyl acetate layer was evaporated using a stream of nitrogen gas and the resulting residue was dissolved in 1:1 mixture of 0.1% aqueous HOAc and acetonitrile and analyzed by reverse-phase HPLC-MS.

[2] = Stability in simulated gastric fluid (SGF) with and without pepsin and simulated intestinal fluid (SIF) with and without pancreatin; conditions: for SGF t1/2: SGF with pepsin; for SGF t1/2 / SGF No Pepsin t1/2: pH 1.2; for SGF t1/2 / SGF No Pepsin t1/2 / SIF t1/2 / SIF No Pancreatin t1/2: 10 μM, 0.5% DMSO, 37° C.; for SGF No Pepsin t1/2: SGF without pepsin; for SIF t1/2: SIF with pancreatin; for SIF t1/2 / SIF No Pancreatin t1/2: pH 6.8; for SIF No Pancreatin t1/2: SIF without pancreatin
[3] = S9 Intrinsic Clearance Assay; assay type: in vitro ADME, Human
Description: as §1
(§2) Stability studies were performed by incubating CBD methyl ether and/or CBD difluoromethyl ether at 37 ° C. in the desired medium. Aliquots were taken at fixed intervals of time, typically at 0, 5, 10, 15, 30, and 45 minutes, or at fixed intervals of 1 h, 1.5 h, 2 h, 4 h, 6 h, 8 h, 24 h, and 48 hours. At each interval of time, two aliquots of each sample were collected. Each aliquot was extracted with ethyl acetate. The ethyl acetate layer was evaporated using a stream of nitrogen gas and the resulting residue was dissolved in 1:1 mixture of 0.1% aqueous HOAc and acetonitrile and analyzed by reverse-phase HPLC-MS.
The stability of CBD methyl ether and CBD difluoromethyl ether in the hepatic S9 fraction is illustrated in Table 3. Both the methyl and difluoromethyl ethers were reasonably stable in S9 fraction with half-lives for de-etherification being about 5 hours for the methyl ether and about 3 hours for the difluoromethyl ether.
Intrinsic clearance (CLint) is clearance of drug by the livers if the drug is not bound to serum proteins or dependent on blood flow for delivery to the livers. Intrinsic clearance (CLint) is influenced by the affinity of the drug for its metabolizing liver enzyme and the number of enzymes present. CLint is subject to saturation and governed by Michaelis-menten (non-linear) elimination kinetics. Intrinsic clearance can be constant at low concentration, but progressively decreases as enzyme sites become saturated. Drugs with a strong affinity for their metabolizing enzymes or for which there are a large number of enzymes would be more efficiently extracted by the liver and thus, have a high extraction ratio (EH).
The hepatic extraction ratio EH is a good measure of expected first-pass metabolic clearance from liver (typical first pass after oral administration). The hepatic extraction ratio (Eh) is represented as follows:
Hepatic clearance (CLH) is the volume of blood that is cleared of drug per unit time by the liver, and QH is the rate of blood flow to the liver.
The hepatic extraction ratio EH is particularly useful for separating compounds into low/medium/high metabolic stability categories. Unlike in vitro intrinsic microsomal clearance (CLint), EH is species-nonspecific, because in its calculation species differences like liver weight, body weight, liver blood flow, etc. are normalized out, so EH values can be directly compared across species.

Plasma Stability Assay = assay type: in vitro ADME; conditions: 1 μM, 37 ° C.
Description: as §1, with “The concentration of CBD methyl and/or CBD difluoromethyl ether is 10 μM for stability studies in SGF and Teorell-Stenhagen Buffer. However, the concentration of CBD methyl and/or CBD difluoromethyl ether is 1 μM for stability studies in microsomal extract, S9 fraction, and plasma.” left out
Stability studies were performed by incubating CBD methyl ether and/or CBD difluoromethyl ether at 37 ° C. in the desired medium. […] The ethyl acetate layer was evaporated using a stream of nitrogen gas and the resulting residue was dissolved in 1:1 mixture of 0.1% aqueous HOAc and acetonitrile and analyzed by reverse-phase HPLC-MS.
The methyl and difluoromethyl ethers of CBD were stable to degradation in plasma. The half-life of degradation as measured by LC-MS for both ethers was greater than 400 minutes.

Solubility Assay - PBS = assay type: physicochemical; conditions: for solubility in phosphate buffered saline / Solubility (μM) in PBS 7.4: PBS pH 7.4; for Solubility (μM) in PBS 7.4 / Solubility (μM) in T-S 7.5: λ 280 nm; for Solubility (μM) in T-S 7.5: Teorell-Stenhagen buffer pH 7.5
[4] = Microsomal Intrinsic Clearance Assay; assay type: in vitro ADME, Human
Description: as §1, §2
In vitro intrinsic microsomal clearance studies were performed to understand the metabolic fate of CBD ethers, as well as to identify metabolites produced by the degradation of the inventive CBD ethers.
The liver is the most important site of drug metabolism in the body. Approximately 60% of marketed compounds are cleared by hepatic CYP-mediated metabolism. See Drug Aletab. Dispos., 27(11) (1999) 1350. Liver microsomes are a subcellular fraction of hepatocytes, and they contain membrane bound drug metabolizing enzymes, Microsomes can be used to determine the in vitro intrinsic clearance of a compound. The use of species-specific microsomes can be used to enable an understanding of interspecies differences in drug metabolism.

[5] = pediatric epilepsy patients receiving CBD orally; cited from earlier work
[6] = 1 μM, protein 1.25 mg/mL, pH 7.4, 37° C
[7] = 1 μM, protein 1.25 mg/mL, pH 7.4, 37° C, NADPH, UDPGA, PAPS
[8] = 1 μM, microsomal protein 1 mg/mL, pH 7.4, 37° C.

| Molecule | Teorell-Stenhagen Buffer pH 3.5 t1/2 [1] [h] | Teorell-Stenhagen Buffer pH 4.5 t1/2 [1] [h] | Teorell-Stenhagen Buffer pH 5.5 t1/2 [1] [h] | Teorell-Stenhagen Buffer pH 6.5 t1/2 [1] [h] | Teorell-Stenhagen Buffer pH 7.5 t1/2 [1] [h] | Teorell-Stenhagen Buffer pH 8.5 t1/2 [1] [h] | SGF t1/2 [2] [h] | SGF No Pepsin t1/2 [2] [h] | SIF t1/2 [2] [h] | SIF No Pancreatin t1/2 [2] [h] | Human S9 EH (hepatic extraction ratio) [3, 6] [%] | Human S9 CLint [3, 7] [µL/min/mg] | Human S9 t1/2 [3, 7] [h] | half-life for de-etherification in S9 fraction ([3]; hepatic S9 fraction) | Plasma stability Human t1/2 (Plasma Stability Assay) [h] | solubility in phosphate buffered saline (Solubility Assay - PBS) | Solubility (μM) in PBS 7.4 (Solubility Assay - PBS) [µM] | Solubility (μM) in T-S 7.5 (Solubility Assay - PBS) [µM] | HLM CLint [4, 8] [µL/min/mg] | HLM EH (hepatic extraction ratio) [4, 8] [%] | other results |
| --- | --- | --- | --- | --- | --- | --- | --- | --- | --- | --- | --- | --- | --- | --- | --- | --- | --- | --- | --- | --- | --- |
| C=C(C)[C@@H]1CCC(C)=C[C@H]1c1c(O)cc(CCCCC)cc1OC [CBD Methyl Ether, CBD methyl ether] | >72 | >72 | >72 | >72 | >72 | >72 | >6.67 | >6.67 | >6.67 | >6.67 | 21 | 1.9 | 4.77 | about 5 hours | >6.67 | good solubility | 8.4 (≈ 2.76 µg/mL) | 22 (≈ 7.23 µg/mL) | 8.7 | 26 | half-life of de-etherification in buffers at different pH's ([1]; Teorell-Stenhagen buffer pH 3.5-8.5): greater than 72 hours; HLM t1/2 [4, 8]: 1.33 h; stability in liver microsome extract [4]: relatively stable |
| C=C(C)[C@@H]1CCC(C)=C[C@H]1c1c(O)cc(CCCCC)cc1O [CBD, cannabidiol, reference compound] | – | – | – | – | – | – | – | – | – | – | – | – | – | – | – | – | – | – | – | – | CBD cyclized to mixture of Δ8-THC and Δ9-THC ([2]; in about 60 minutes, comparison in the SGF/SIF stability study): greater than 85%; patients showing somnolence [5]: greater than 44% |
| C[C@]12CC[C@H]3[C@@H](CCC4=CC(=O)CC[C@@]43C)[C@@H]1CC[C@@H]2O [Testosterone, testosterone, reference compound] | – | – | – | – | – | – | – | – | – | – | 87 | – | – | – | – | – | – | – | – | 73 | microsomal CLint at 1 μM ([3]; human, hepatic S9 fraction, 1 μM, protein 1.25 mg/mL, pH 7.4, 37° C, NADPH, UDPGA, PAPS): 47 µL/min/mg; half-life at 1 μM ([3]; human, hepatic S9 fraction, 1 μM, protein 1.25 mg/mL, pH 7.4, 37° C, NADPH, UDPGA, PAPS, read-out: Human S9 t1/2): 0.483 h; half-life ([3]; human, hepatic S9 fraction, read-out: half-life of degradation in S9 fraction): ~0.483 h; microsomal CLint at 1 μM ([4]; human, liver microsomes, 1 μM, microsomal protein 1 mg/mL, pH 7.4, 37° C., read-out: HLM CLint): 69 µL/min/mg; half-life at 1 μM ([4]; human, liver microsomes, 1 μM, microsomal protein 1 mg/mL, pH 7.4, 37° C., read-out: HLM t1/2): 0.167 h |
| CBD difluoromethyl ether | 10 | 14 | 11 | 11 | 11 | 8 | >6.67 | >6.67 | >6.67 | >6.67 | 31 | 3.2 | 2.88 | about 3 hours | >6.67 | good solubility | 7.0 | 9.7 | 9.0 | 26 | HLM t1/2 [4, 8]: 1.28 h; stability in liver microsome extract [4]: relatively stable |
